Source: US20140255321A1, “Active Sunscreen Composition” (Rhode Island Hospital, priority 2008, published 2014)

Tested on: Normal Human Dermal Fibroblast cells
Assay: CometAssay of DNA damage in dermal fibroblasts exposed to a solar simulator under a protective layer
Format: cell-based
Details: for Comet tail appearance / extent of DNA damage (in words): SYBR I Green visualisation after electrophoresis 25 minutes at 20 volts, FIGS. 2 and 3; for Comet tail appearance / extent of DNA damage (in words) / Integral of Student's Probability Density for Tail Length/Total Length: disodium salt
From the text: Using a model for human skin (confluent human dermal fibroblasts, Lonza CC-2511), a fluorescent dye was used to evaluate induction of […]. Stilbene-420 was selected for having a broad range of absorption in the UVB and UVA ranges while retaining a relatively narrow emission spectrum centered around 420 nm. A 2% solution of stilbene in water was used for this study.
Stilbene-420 was compared to both unshielded cells and commercial SPF 45 sunblock in their ability to protect Normal Human Dermal Fibroblast cells raised on Lonza FGM-2 media from exposure to the full power of a solar simulator. A CometAssay was used to assess DNA damage to the cells. The resulting data was filtered and analyzed with an Integral of Student's Probability Density.
Using Fibroblast Grown Medium with 10% FBS, normal Human Dermal Fibroblasts (obtained from Lonza Clonetics) were grown to confluence in a 12-well plate. After 6 days, one of the wells was harvested by scraping and stored at 4° C. Using custom aluminum holders, a UV-transparent quartz window was placed above each well, and space between the window and holder sealed with 5% agarose. The windows were then covered with 0.5 mL of 0.5% Stilbene 420 florescent dye in water, commercial SPF 45 sunblock or left alone. Then, the plate was exposed to a Solar Simulator for 22.5 minutes at full intensity. Afterwards, the cells were harvested by scraping and all the cells were suspended in low-melting point for the CometAssay using a kit produced by Trevigen. Though the results of DNA damage are often easy to see, for example, cell death, quantifying the extent to which this damage has occurred can be difficult. The CometAssay is a test measures fairly low levels of DNA Damage. The basic concept of the test is that, given more incipient DNA damage that is dealt, the more fragments of DNA are created and the smaller they become. By embedding the cells in a low melting point agarose gel and lysing them, release of these DNA fragments occurs without inducing further damage. A simple gel electrophoresis process causes the fragments to begin to migrate out of the lysed cells. As smaller fragments move faster, a comet-like tail develops, which can be visualized by using a dye like SYBR1 Green. The relative size, intensity and length of this tail are directly related to the amount of DNA damage a cell has received.
After lysing the cells and running them on an electrophoresis apparatus for 25 minutes at 20 volts, the DNA fragment “tails” were visualized with SYBR I Green dye under a microscope using a 492 nm laser and stored (FIGS. 2a.-c.). Using a MatLAB script, the images were filtered by their intensity to isolate individual cells (FIG. 3). […] This is indicative of damaged DNA which forms a heterogeneous population of DNA strand lengths.
Each cell was measured by the width of the “core,” where the larger, less-damaged pieces of DNA remained, and the length of the “tail” produced from the migration of the smaller fragments. These values were compared in several ratios and a Student t-test was performed (Table 1). From those t-values an Integral of Student's Probability Density was calculated assuming an unequal variance between the different protections. This latter value determines the probability that the data comes from the same population as the control data. For the sunblock-protected cells, there is just an 11% chance when comparing the ratio of tail length to total length of the “comet” to the same ratio for the control. For the unprotected cells, the probability drops to just 4.7%. But, for the dye-protected cells, there was a 96.6% came from the same population, indicating the dye provided the best protection, keeping the cells closest to their original state.

[1] = Student t-test vs unexposed control cells, Solar Simulator 22.5 minutes at full intensity
[2] = probability that data come from the same population as the control, unequal variance assumed

Structure (SMILES): O=S(=O)([O-])c1ccccc1C=Cc1ccc(-c2ccc(C=Cc3ccccc3S(=O)(=O)[O-])cc2)cc1.[Na+].[Na+] [Stilbene 420, 2,2″-([1,1′-biphenyl]-4.4′-dyldi-2,1-ethenediyl)bis-benzenesulfonic acid disodium salt]
- Comet tail appearance / extent of DNA damage (in words): narrower, shorter tail
- Comet tail appearance / extent of DNA damage (in words) (listed as stillbene): do not form tails
- Tail Length/Core Width T-Value [1]: 0.2257
- Tail Length/Total Length T-Value [1]: 0.0437
- Difference T-value (Student t-test vs unexposed control cells, comet tail/core measures, Solar Simulator 22.5 minutes at full intensity): 0.1870
- Integral of Student's Probability Density for Difference [2]: 85.83%
- Integral of Student's Probability Density for Tail Length/Core Width [2]: 82.7%
- Integral of Student's Probability Density for Tail Length/Total Length [2]: 96.63%
- Integral of Student's Probability Density for Tail Length/Total Length (probability that data come from the same population as the control, unequal variance assumed, listed as dye): 96.6%
- Greater chance of being from the same population of unexposed cells than the sunblock protected cells (statistical comparison of Stilbene-protected vs sunblock-protected cells): more than a forty percent greater chance
